# Patent publication US20220194938A1, “NOVEL COMPOUNDS AND PHARMACEUTICAL COMPOSITIONS THEREOF FOR THE TREATMENT OF INFLAMMATORY DISORDERS” (GALAPAGOS NV, priority 2019, published 2022)
# Read-outs that look alike come from different tables or passages of the source.
# Assays:
# Thermodynamic solubility = assay type: physicochemical; details: thermodynamic from solid, 37° C.
# Excerpt: 4.2. Thermodynamic Solubility
# Poor solubility, in particular poor thermodynamic solubility can limit the absorption of compounds from the gastrointestinal tract which in turn may reduce oral bioavailability.
# Thermodynamic solubility investigates the solubility of a compound as a saturated solution in equilibrium, by opposition to kinetic solubility, which measures the solubility of a metastable solution where supersaturation may occur and provide over estimation of the actual solubility of the compound. (Klein 2010)
# 4.2.1. Thermodynamic Solubility—Protocol 1
# (§1) In a 8 mL glass vial, 1-2 mg of dry matter of compound are added and stirred with the suitable buffers (Fed State Simulated Intestine Fluid, FeSSIF, or Fasted State Simulated Intestine Fluid, FaSSIF, or Fasted State Simulated Gastric Fluid, FaSSGF, or phosphate buffer pH 7.4) for 24 h at r.t. (for the buffer pH 7.4) or 37° C. (for the GI fluids). The concentration of the mixture is 1 mg/mL.
# A volume of 500 μL are sampled, centrifuged for 10 min at 10 000 rpm and filtered. The samples are diluted in duplicates in DMSO (F100 and F10). Then, a final dilution (F100) in 80/20 H2O/MeCN containing the internal standard (warfarin) is used for LCMS-MS analysis.
# A standard curve is made starting from a 200,000 ng/mL stock in DMSO, freshly prepared from dry matter. Then, successive concentrations at […], 1,000, 200 and 75 ng/mL in DMSO are prepared by using the Tecan robot.
# Two quality control samples are made: one of 10,000 ng/mL and one of 500 ng/mL in DMSO, also starting from the DMSO working stock solution at 200,000 ng/mL.
# The standard curve and quality controls are diluted a F100 in 80/20 H2O/MeCN (with internal standard) and analyzed on LC/MS-MS (API4000 or API5500).
# (§2) The samples are analyzed on LC-MS with a flow rate of 0.6 mL/min. The mobile phase A is 0.1% formic acid in water and the mobile phase B is 0.1% formic acid in MeCN. The sample is run under positive or negative ion spray on Pursuit C18-5 μm (2.0×20 mm) column, from Agilent.
# The peak areas of the standard curve are plotted in a graph and a linear or polynomial of the second order equation is used to calculate the unknown concentrations of the test compound.
# 4.2.2. Thermodynamic Solubility—Protocol 2
# as §1, with “In an” for “In a”, “compound were” for “compound are”, “mixture was” for “mixture is”
# A volume of 1000 μL were sampled, centrifuged for 10 min at 10 000 rpm and 500 μL of the supernatant were filtered on captiva plate. The samples were diluted in duplicates in DMSO (F100 and F10). Then, a final dilution (F100) in 80/20 H2O/MeCN containing the internal standard (warfarin) was used for LCMS-MS analysis.
# A standard curve was made starting from a 40,000 ng/mL stock in DMSO, freshly prepared from dry matter. Then, successive concentrations at 15,000, 11,000, 6,000, 2,500, 1,000, 375, 150 and 75 ng/mL in DMSO were prepared.
# Three quality control samples were made: one of 10,000, 1,500 and 200 ng/mL in DMSO, also starting from the DMSO working stock solution at 40,000 ng/mL.
# The standard curve and quality controls were diluted a F100 in 80/20 H2O/MeCN (with internal standard) and analyzed on LC/MS-MS (API4000 or API5500).
# as §2, with “were” for “are”, “was” for “is”, “90% acetonitrile and 10% of water.” for “MeCN.”, “Agilent. […]” for “Agilent.”
# [1] = system: pooled cryopreserved hepatocytes; test: Metabolic stability in hepatocytes (mouse); assay type: in vitro ADME; details: 1 μM test compound
# Experimental: (§3) 4.6. Metabolic Stability in Hepatocytes
# (§4) The aim of this assay is to determine the metabolic stability of the compound in hepatocytes (cryopreserved) of different species. Low hepatocyte stability may result in the formation of unwanted metabolites, high clearance, and therefore is not desirable.
# (§5) The decrease in parent was assessed by measuring the percentage remaining by LC-MS/MS analysis.
# (§6) A 10 mM stock solution of test compound in DMSO was first diluted in DMSO to 3 mM, and then in modified Krebs-Henseleit buffer (Sigma, K3753) to 5 μM. This compound dilution was added to a suspension of pooled cryopreserved hepatocytes (BioreclamationIVT) at 37° C. under gentle shaking.
# (§7) Final reaction conditions were: 1 μM of test compound, 0.03% DMSO, 0.5 million viable hepatocytes/mL, and 75 μL incubation volume.
# (§8) Testosterone (1 μM) and 7-hydroxycoumarin (1 μM) were used, respectively as phase I and phase II metabolic reaction controls.
# (§9) After 0, 10, 20, 45, 90, 120 and 180 min of incubation, the reaction was terminated with 225 μL of MeCN:MeOH (2:1) containing 100 ng/mL of diclofenac as analytical internal standard. Samples were mixed, centrifuged and the supernatant analyzed by LC-MS/MS.
# (§10) The instrument responses (ratios of test compound and internal standard peak areas) were referenced to the zero time point samples (considered as 100%) in order to determine the percentage of compound remaining.
# (§11) Plots of percentage compound remaining are used to determine the intrinsic clearance in the hepatocyte incubations using the following equations:
# (§12) Scaled Clint[L/h/kg]=Clint[μL/min/10^6 cells]*#(10^6) cells/g liver*60*(1/10^6) Scaled Clint unbound [L/h/kg]=Clint [L/h/kg]/Fu,inc where: fu,inc equals hepatocyte binding, derived from microsomal binding (fu,mic) by following equation: […]
# [2] = system: pooled cryopreserved hepatocytes; test: Metabolic stability in hepatocytes (human); assay type: in vitro ADME; details: 1 μM test compound
# Experimental: as §3, §4, §5, §6, §7, §8, §9, §10, §11, §12
# [3] = Fasted State Simulated Intestine Fluid (FaSSIF), fassif, Fasted State Simulated Intestine Fluid, read-out: Tsol FaSSIF
# [4] = Fasted State Simulated Gastric Fluid (FaSSGF), fassgf or other biorelevant, Fasted State Simulated Gastric Fluid, read-out: Tsol FaSSGF
# [5] = Fed State Simulated Intestine Fluid (FeSSIF), fessif, Fed State Simulated Intestine Fluid, read-out: Tsol FeSSIF
Structure (SMILES),solubility thermodynamic at 24 h (Thermodynamic solubility; [3]) [µg/mL],Mouse (Perc. remaining at 90 min) [1] [%],Human (Perc. remaining at 90 min) [2] [%],solubility thermodynamic at 24 h (Thermodynamic solubility; [4]) [µg/mL],solubility thermodynamic at 24 h (Thermodynamic solubility; [5]) [µg/mL]
"COc1cc2nc(CCC(C)(C)O)cn2cc1NC(=O)c1cccn(C2CCC2)c1=O [Compound 18, 1-cyclobutyl-N-[2-(3-hydroxy-3-methyl-butyl)-7-methoxy-imidazo[1,2-a]pyridin-6-yl]-2-oxo-pyridine-3-carboxamide]",253,60.9,93.95,,
"COc1cc2nc(CCC(C)(C)O)cn2cc1NC(=O)c1cccc(C(C)(F)F)n1 [Compound 20, 6-(1,1-difluoroethyl)-N-[2-(3-hydroxy-3-methyl-butyl)-7-methoxy-imidazo[1,2-a]pyridin-6-yl]pyridine-2-carboxamide]",2.63,75.2,75.55,,
"CCn1cccc(C(=O)Nc2cn3cc(CCC(C)(C)O)nc3cc2OC)c1=O [Compound 23, 1-ethyl-N-[2-(3-hydroxy-3-methyl-butyl)-7-methoxy-imidazo[1,2-a]pyridin-6-yl]-2-oxo-pyridine-3-carboxamide]",459,89.65,91.45,> 1000,
"COc1cc2nc(CCS(C)(=O)=O)cn2cc1NC(=O)c1cccc(C(F)(F)F)n1 [Compound 24, N-[7-methoxy-2-(2-methylsulfonylethyl)imidazo[1,2-a]pyridin-6-yl]-6-(trifluoromethyl)pyridine-2-carboxamide]",2.44,46,73.6,> 1000,

# Further lines, results first:
solubility thermodynamic at 24 h (Thermodynamic solubility; [3]) [µg/mL],Mouse (Perc. remaining at 90 min) [1] [%],Human (Perc. remaining at 90 min) [2] [%],solubility thermodynamic at 24 h (Thermodynamic solubility; [4]) [µg/mL],solubility thermodynamic at 24 h (Thermodynamic solubility; [5]) [µg/mL],Structure (SMILES)
41.5,95.05,95.3,,,"COc1cc2nc(CCS(C)(=O)=O)cn2cc1NC(=O)c1cccn(C2CC2)c1=O [Compound 25, 1-cyclopropyl-N-[7-methoxy-2-(2-methylsulfonylethyl)imidazo[1,2-a]pyridin-6-yl]-2-oxo-pyridine-3-carboxamide]"
2.97,96.5,94.9,> 1000,4.4,"CC(C)(O)CCc1cn2cc(NC(=O)c3cccc(C(F)(F)F)n3)c(C(N)=O)cc2n1 [Compound 31, 2-(3-hydroxy-3-methyl-butyl)-6-[[6-(trifluoromethyl)pyridine-2-carbonyl]amino]imidazo[1,2-a]pyridine-7-carboxamide]"
< 30,25.85,64.9,,,"COCCc1cn2cc(NC(=O)c3cccc(C(F)(F)F)n3)c(OC)cc2n1 [Compound 35, N-[7-methoxy-2-(2-methoxyethyl)imidazo[1,2-a]pyridin-6-yl]-6-(trifluoromethyl)pyridine-2-carboxamide]"
70.5,103.5,99.7,> 1000,,"CCOc1c(NC(=O)c2cccn(C3CC3)c2=O)cn2cc(CCC(C)(C)O)nc2c1F [Compound 37, 1-cyclopropyl-N-[7-ethoxy-8-fluoro-2-(3-hydroxy-3-methyl-butyl)imidazo[1,2-a]pyridin-6-yl]-2-oxo-pyridine-3-carboxamide]"
181,91.45,96.75,> 1000,612,"COc1c(NC(=O)c2cccn(C3CC3)c2=O)cn2cc(CCC(C)(C)O)nc2c1F [Compound 42, 1-cyclopropyl-N-[8-fluoro-2-(3-hydroxy-3-methyl-butyl)-7-methoxy-imidazo[1,2-a]pyridin-6-yl]-2-oxo-pyridine-3-carboxamide]"
